How the values were obtained:
[1] = molecular target: T1, NAD-dependent protein deacetylase sirtuin-1 (Homo sapiens, UniProt Q96EB6); experiment: Inhibition of human recombinant SIRT1 after 60 mins by fluorimetric analysis
T1 sequence (Q96EB6 whole entry): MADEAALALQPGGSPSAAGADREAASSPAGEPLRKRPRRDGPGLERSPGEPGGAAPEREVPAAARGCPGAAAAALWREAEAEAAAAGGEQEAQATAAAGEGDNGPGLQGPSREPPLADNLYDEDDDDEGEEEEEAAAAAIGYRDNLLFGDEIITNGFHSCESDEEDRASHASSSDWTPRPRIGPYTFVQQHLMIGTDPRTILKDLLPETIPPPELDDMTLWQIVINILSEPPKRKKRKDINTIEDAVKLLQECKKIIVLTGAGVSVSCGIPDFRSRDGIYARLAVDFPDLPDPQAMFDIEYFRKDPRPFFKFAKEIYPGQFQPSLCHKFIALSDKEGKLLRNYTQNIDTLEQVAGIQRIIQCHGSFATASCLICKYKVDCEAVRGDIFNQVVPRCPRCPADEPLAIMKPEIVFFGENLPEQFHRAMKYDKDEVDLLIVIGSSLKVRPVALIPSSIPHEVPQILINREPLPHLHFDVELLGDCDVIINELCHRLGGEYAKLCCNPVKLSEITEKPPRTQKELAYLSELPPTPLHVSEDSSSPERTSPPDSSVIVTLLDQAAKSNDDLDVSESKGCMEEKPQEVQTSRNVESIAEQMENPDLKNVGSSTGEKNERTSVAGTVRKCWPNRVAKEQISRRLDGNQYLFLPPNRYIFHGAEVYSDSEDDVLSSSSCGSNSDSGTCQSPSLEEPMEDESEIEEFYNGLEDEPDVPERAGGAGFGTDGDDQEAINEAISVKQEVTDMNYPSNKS

[2] = molecular target: T2, NAD-dependent protein deacetylase sirtuin-2 (Homo sapiens, UniProt Q8IXJ6); experiment: Inhibition of human recombinant SIRT2 after 60 mins by fluorimetric analysis
T2 sequence (Q8IXJ6 whole entry): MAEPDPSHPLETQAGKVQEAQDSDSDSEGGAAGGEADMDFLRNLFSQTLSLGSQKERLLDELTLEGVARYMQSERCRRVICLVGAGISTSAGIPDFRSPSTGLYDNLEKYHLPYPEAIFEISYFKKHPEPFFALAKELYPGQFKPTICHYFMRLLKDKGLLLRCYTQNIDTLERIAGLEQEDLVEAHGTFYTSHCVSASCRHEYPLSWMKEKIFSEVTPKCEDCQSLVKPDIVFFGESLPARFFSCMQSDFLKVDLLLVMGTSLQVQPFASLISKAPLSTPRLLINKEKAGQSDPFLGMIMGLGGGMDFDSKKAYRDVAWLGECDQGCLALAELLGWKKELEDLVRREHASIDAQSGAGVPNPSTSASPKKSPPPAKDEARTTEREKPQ

[3] = molecular target: T3, NAD-dependent protein deacetylase sirtuin-3, mitochondrial (Homo sapiens, UniProt Q9NTG7); experiment: Inhibition of human recombinant SIRT3 after 60 mins by fluorimetric analysis
T3 sequence (Q9NTG7 whole entry): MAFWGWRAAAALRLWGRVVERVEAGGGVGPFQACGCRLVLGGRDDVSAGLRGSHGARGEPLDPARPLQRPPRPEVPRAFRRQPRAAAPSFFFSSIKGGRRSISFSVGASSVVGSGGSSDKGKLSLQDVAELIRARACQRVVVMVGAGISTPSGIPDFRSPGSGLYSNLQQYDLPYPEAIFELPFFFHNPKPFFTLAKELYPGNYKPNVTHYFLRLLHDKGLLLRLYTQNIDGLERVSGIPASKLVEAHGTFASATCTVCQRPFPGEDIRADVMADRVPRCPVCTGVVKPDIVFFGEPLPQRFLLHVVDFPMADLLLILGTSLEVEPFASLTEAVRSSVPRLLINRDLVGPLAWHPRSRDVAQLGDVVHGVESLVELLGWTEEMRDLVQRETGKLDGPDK

IC50 [1]: 2.7 µM
IC50 [2]: 23 µM
IC50 [3]: > 100 µM
SMILES: CC(=S)NCCCC[C@H](NC(=O)OCc1ccccc1)C(=O)Nc1ccccc1

Source: ChEMBL document CHEMBL1155190, “Identification of a cell-active non-peptide sirtuin inhibitor containing N-thioacetyl lysine” (Bioorg Med Chem Lett, 2009)
